Among the data in ChEMBL document CHEMBL5505981, “Design, synthesis and biological evaluation of novel 1,2,4a,5-tetrahydro-4H-benzo[b][1,4]oxazino[4,3-d][1,4]oxazine-based AAK1 inhibitors with anti-viral property against SARS-CoV-2” (Eur J Med Chem, 2024) are IC50, Activity and inhibition values, retold here.

The IC50 is the point on the concentration scale where inhibition reaches its midpoint. A low value points to inhibition by little substance.

In assay [1] the test system is SARS-CoV-2. Kind of assay: microbe, parasite or virus in culture. Conditions: Severe acute respiratory syndrome coronavirus 2, HEK293.
Assay [2] concerns SARS-CoV-2. Format: functional, organism-based. To be noted: Severe acute respiratory syndrome coronavirus 2; HEK293; dose 5.0 µM, time 6.0 hrs.
In assay [3] the test system is SARS-CoV-2. Type of assay: functional, organism-based. Conditions: Severe acute respiratory syndrome coronavirus 2; HEK293; dose 5.0 µM, time 6.0 hrs. The source holds these as a separate data set.
In assay [4] the test system is SARS-CoV-2. Type of assay: functional, organism-based. Conditions: Severe acute respiratory syndrome coronavirus 2; HEK293; dose 3.0 µM, time 4.0 hrs.
For assay [5], the system named is SARS-CoV-2. Type of assay: functional, organism-based. Conditions: Severe acute respiratory syndrome coronavirus 2; HEK293; dose 3.0 µM, time 25.0 hrs.
Assay [6] relates to HEK293. Format: cell-based. To be noted: Homo sapiens, dose 1-3 µM, time 4.0 hrs.
The test system of assay [7] is SARS-CoV-2. Type of assay: functional, organism-based. To be noted: Severe acute respiratory syndrome coronavirus 2; HEK293; dose 10.0 µM, time 6.0 hrs.
The subject of assay [8] is SARS-CoV-2. Type of assay: functional, organism-based. To be noted: Severe acute respiratory syndrome coronavirus 2; HEK293; dose 10.0 µM, time 6.0 hrs. The source holds these as a separate data set.
Assay [9] has as its system HEK293. Format: cell-based. To be noted: Homo sapiens, dose 5-10 µM, time 4.0 hrs.

Activity calls are given as the source filed them. The rule behind the calls is not given here.

`CCN(CC)CCNC(=O)c1c(C)[nH]c(/C=C2\C(=O)Nc3ccc(F)cc32)c1C` [SUNITINIB] had an IC50 in assay [1] of around 1.96 µM.

In the case of `CC(C)C[C@](C)(N)COc1ccc(-c2ccnc(C(F)F)c2)nc1C(F)F` [PILAVAPADIN], the outcome in [2], in assay [3] and in [4] was Active. The IC50 in [1] was around 4.18 µM.

Turning to `COc1ccc(-c2cnc3[nH]cc(C#Cc4cccnc4)c3c2)cc1OC`, the inhibition result in [5] and in [6] was “Active” each time. Further, the outcome in [4] was Active. In addition, the IC50 in [1] is around 3.11 µM.

With `CCN(CC)S(=O)(=O)Nc1cccc(-c2ccc3c(NC(=O)C4CC4)n[nH]c3c2)c1`, the result in assay [7], in assay [8] and in [4] was Active. In addition, the inhibition result in assay [9] was “Active”.

With `C(#Cc1c[nH]c2ncc(-c3ccc4c(c3)OCC3COCCN43)cc12)c1cccnc1` (configuration not stated), the inhibition result in assay [5] and in assay [6] was “Active” throughout. For the same compound, the result in assay [4] was Active. The same compound returned an IC50 in assay [1] of around 2.9 µM.
